This is an account of results in US10822327B2, “2-substituted aromatic ring-pyrimidine derivative and preparation and application thereof” (ZHEJIANG UNIVERSITY, priority 2016, dated 2020).

One test addresses T1, Chk1 protein kinase (Homo sapiens, UniProt O14757).
T1 sequence (O14757 1-476): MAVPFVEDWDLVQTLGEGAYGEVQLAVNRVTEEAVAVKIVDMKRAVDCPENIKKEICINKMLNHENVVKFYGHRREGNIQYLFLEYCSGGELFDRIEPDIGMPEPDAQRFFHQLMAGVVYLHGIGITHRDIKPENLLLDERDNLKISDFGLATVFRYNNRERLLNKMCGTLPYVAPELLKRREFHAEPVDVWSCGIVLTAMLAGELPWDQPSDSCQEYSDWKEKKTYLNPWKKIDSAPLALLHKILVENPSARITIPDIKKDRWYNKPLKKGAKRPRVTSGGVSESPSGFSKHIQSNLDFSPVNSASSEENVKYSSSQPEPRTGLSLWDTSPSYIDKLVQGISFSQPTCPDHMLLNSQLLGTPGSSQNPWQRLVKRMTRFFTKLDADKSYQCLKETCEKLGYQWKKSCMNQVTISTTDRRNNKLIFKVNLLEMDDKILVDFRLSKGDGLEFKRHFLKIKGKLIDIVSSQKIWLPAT
The test is described as follows: Chk1 enzyme inhibitory activity, ADP-Glo kit. To be noted: bounds, unit μM. In kind it is biochemical. As to the method: Saurosporine is used as a positive control, the Chk1 enzyme inhibitory activity (IC50) was evaluated using the ADP-Glo kit. […] The phosphorylation process consumes ATP. After the reaction, ADP-Glo™ Reagent consumes the remaining ATP, wherein ADP produced during the reaction can be transformed to ATP by ADP-Glo Detection Reagent. ATP acts as a substrate for the Ultra-Glo™ luciferase catalytic reaction, producing an optical signal. The test compound was dissolved in DMSO to prepare a 10 mM stock solution and diluted to 12 different concentrations in a certain ratio for testing. 1 μL of the test compound and 2 μL of 2.5× Chk1 kinase were added to each well of a 384-well plate, and 2 μL of 1× buffer was added to the control group. After incubation for 10 min at room temperature, 2 μL of 2.5× substrate was added. Ater incubation for 1 h at 37° C., 5 μL. of ADP-Glo™ Reagent was added and the reaction was stopped before incubating again for 1 h at 37° C. 10 μL of ADP-Glo Detection Reagent was added before incubating for 30 min at 37° C., and three parallel wells were set for each sample. […] by luminescence fluorescence microplate reader, and data were calculated using GraphPad Prism 5 software to calculate IC50 values.

Test [1] concerns human multiple myeloma cells RPMI 8226. The test is described as follows: MTS in vitro proliferation inhibition, RPMI 8226. In kind it is cell-based. To be noted: 72 hours, average of three experiments, read-out: IC50(μM) RPMI8226. The text has this:
(§1) Cell lines: human multiple myeloma cells RPMI 8226, human mantle cell lymphoma cells Mino, Jeko-1, human lymphoma cells Romas, human acute monocytic leukemia cells MV-4-11, human breast cancer cells MCF-7 Human lung cancer cell A549, human prostate cancer cell LnCAP, human gastric cancer cell BGC-823, human colon cancer cell HCT116, Colo205, and human ovarian cancer cell OVCAR-8. Experimental method: using MTS method for in vitro proliferation Inhibitory activity (IC50) of compounds against different tumor cell lines.
(§2) The cells in the logarithmic growth phase were trypsinized, counted, and seeded at a density of 1×10^4 cells/well in a 96-well plate at 100 μL per well before placing in a 37° C. incubator containing 5% CO2 overnight. Six concentration gradients were set for each compound, and three sets of duplicate wells were set for each concentration. After the addition, the cells were cultured for 72 hours, and 20 μL of MTS was added. After incubating for 2 hours at 37° C., the absorbance at 490 nm (L1) was measured with a SpectraMAX 340 microplate reader. The reference wavelength was 690 nm (L2), and the (L1-L2) value was plotted against the different concentrations of the inhibitor. The half inhibitory concentration IC50 was fitted by the formula.

Test [2] deals with human mantle cell lymphoma cells Mino. The test is described as follows: MTS in vitro proliferation inhibition, Mino. The conditions noted are these: 72 hours, average of three experiments. It is filed as cell-based.
From the text: as §1, §2

Test [3] has as its system human lymphoma cells Romas. In words: MTS in vitro proliferation inhibition, Romas. It is filed as cell-based. To be noted: 72 hours, average of three experiments.
From the text: as §1, §2

In test [4] the test system is human mantle cell lymphoma cells Jeko-1. The test is described as follows: MTS in vitro proliferation inhibition, Jeko-1. In kind it is cell-based. To be noted: 72 hours, average of three experiments.
From the text: as §1, §2

Test [5] has as its system human acute monocytic leukemia cells MV-4-11. The test is described as follows: MTS in vitro proliferation inhibition, MV-4-11. It is filed as cell-based. To be noted: MV4-11, 72 hours, average of three experiments.
From the text: as §1, §2

The test system of test [6] is human breast cancer cells MCF-7. In words: MTS in vitro proliferation inhibition, MCF-7. In kind it is cell-based. To be noted: MCF7, 72 hours, average of three experiments.
From the text: as §1, §2

Test [7] has as its system Human lung cancer cell A549. The test is described as follows: MTS in vitro proliferation inhibition, A549. In kind it is cell-based. To be noted: 72 hours, average of three experiments.
From the text: as §1, §2

For test [8], the system named is human prostate cancer cell LnCAP. The test is described as follows: MTS in vitro proliferation inhibition, LnCAP. In kind it is cell-based. To be noted: 72 hours, average of three experiments.
From the text: as §1, §2

Test [9] concerns human gastric cancer cell BGC-823. The test is described as follows: MTS in vitro proliferation inhibition, BGC-823. To be noted: 72 hours, average of three experiments. It is filed as cell-based.
From the text: as §1, §2

The subject of test [10] is human colon cancer cell HCT116. The test is described as follows: MTS in vitro proliferation inhibition, HCT116. In kind it is cell-based. To be noted: HCT-116, 72 hours, average of three experiments.
From the text: as §1, §2

The test system of test [11] is human ovarian cancer cell OVCAR-8. The test is described as follows: MTS in vitro proliferation inhibition, OVCAR-8. It is filed as cell-based. The conditions noted are these: 72 hours, average of three experiments.
From the text: as §1, §2

For test [12], the system named is human colon cancer cell Colo205. In words: MTS in vitro proliferation inhibition, Colo205. In kind it is cell-based. To be noted: COLO 205, 72 hours, average of three experiments.
From the text: as §1, §2

Molecules are shown by their SMILES. A value given as a limit tells only on which side of the number the result lay.

As a reminder, the IC50 is the midpoint of a concentration-inhibition curve. Regarding `Cc1cc(Nc2ncc(-c3cccs3)c(NC3CCNCC3)n2)no1` [Compound 4, 5-(thien-2-yl)-N^2-(5-methyloxazol-3-yl)-N^4-(piperidin-4-yl)-2,4-diaminopyrimidine], the IC50 against Chk1 protein kinase was greater than 10 µM.
Same read-out and setting: with `Cn1cc(-c2cnc(Nc3cnc(C#N)cn3)nc2NC2CCNCC2)cn1` [Compound 27, 5-(1-methyl-1H-pyrazol-4-yl)-N^2-(2-cyanopyrazin-5-yl)-N^4-(piperidin-4-yl)-2,4-diaminopyrimidine] the figure was greater than 10 µM.
In turn, `N#Cc1ccc(Nc2ncc(-c3ccccc3NCC3CCNCC3)cn2)cn1` [Compound 33, 5-(2-(piperidin-4-methyl)aminophenyl)-N-(2-cyanopyridin-5-yl)-2-aminopyrimidine] had an IC50 against Chk1 protein kinase greater than 10 µM.
For the compound `Cc1cc(Nc2ncc(-c3cnn(C)c3)c(NC3CCNCC3)n2)no1` [Compound 2, 5-(1-methyl-1H-pyrazol-4-yl)-N^2-(5-methyloxazol-3-yl)-N^4-(piperidin-4-yl)-2,4-diaminopyrimidine], at Chk1 protein kinase, the IC50 is greater than 10 µM.
For the compound `N#Cc1ccc(Nc2ncc(Br)cn2)cn1` [Compound 30, 5-bromo-N-(2-cyanopyridin-5-yl)-2-aminopyrimidine], the 50% inhibitory concentration (IC50) on Chk1 protein kinase is greater than 10 µM.
Compound `N#Cc1ccc(Nc2ncc(C(F)(F)F)c(NC3CCNCC3)n2)cn1` [Compound 35, 5-trifluoromethyl-N^2-(2-cyanopyridin-5-yl)-N^4-(piperidin-4-yl)-2,4-diaminopyrimidine] showed an IC50 against Chk1 protein kinase of less than 1 µM.
Compound `Cc1cc(Nc2ncc(-c3cnn(C)c3)c(NC3CCNCC3)n2)n[nH]1` [Compound 1, 5-(1-methyl-1H-pyrazol-4-yl)-N^2-(3-methylpyrazol-5-yl)-N^4-(piperidin-4-yl)-2,4-diaminopyrimidine] returned an IC50 against Chk1 protein kinase greater than 10 µM.
Take `N#Cc1ccc(Nc2ncc(-c3ccco3)c(NC3CCNCC3)n2)cn1` [Compound 17, 5-(furan-2-yl)-N^2-(2-cyanopyridin-5-yl)-N^4-(piperidin-4-yl)-2,4-diaminopyrimidine]: the half-inhibitory concentration (IC50) in test [1] stood at 3.34 µM; in test [2], 0.708 µM; in test [3] it was 0.536 µM; in test [4], 0.342 µM; in [5], 0.044 µM; in test [6] it was 1.8 µM. Besides, the IC50 in test [7] is 0.774 µM; in test [8], 1.44 µM; in [9], 3.17 µM; in [10], 2.68 µM; in [11] it was 4.71 µM; in test [12] it was 2.77 µM.
Consider `N#Cc1ccc(Nc2ncc(-c3ccccc3N)cn2)cn1` [Compound 31, 5-(2-aminophenyl)-N-(2-cyanopyridin-5-yl)-2-aminopyrimidine], for which, at Chk1 protein kinase, the IC50 is greater than 10 µM.
Same read-out and setting: with `N#Cc1ccc(Nc2ncc(C(F)(F)F)c(N[C@@H]3CCCNC3)n2)cn1` [Compound 36, (R)-5-trifluoromethyl-N^2-(2-cyanopyridin-5-yl)-N^4-(piperidin-3-yl)-2,4-diaminopyrimidine] the figure was less than 1 µM; with `Cc1cc(Nc2ncc(-c3ccco3)c(NC3CCNCC3)n2)no1` [Compound 6, 5-(furan-2-yl)-N^2-(5-methyloxazol-3-yl)-N^4-(piperidin-4-yl)-2,4-diaminopyrimidine], greater than 10 µM.
As for `Cn1cc(-c2cnc(Nc3ccc(C#N)nc3)nc2N[C@H]2CCCNC2)cn1` [Compound 21, (S)-5-(1-methyl-1H-pyrazol-4-yl)-N^2-(2-cyanopyridin-5-yl)-N^4-(piperidin-3-yl)-2,4-diaminopyrimidine], the IC50 is 3.6 µM in [1]; 0.608 µM in test [2]; 0.401 µM in test [3]; 0.253 µM in test [4]; 0.035 µM in [5]; 2.56 µM in test [6]. The IC50 in [7] was 1.02 µM; in test [8], 0.842 µM; in test [9], 2.11 µM; in test [10] it was 1.39 µM; in test [11], 3.24 µM; in [12], 1.54 µM.
With `Cc1cc(Nc2ncc(-c3cccs3)c(NC3CCNCC3)n2)n[nH]1` [Compound 3, 5-(thien-2-yl)-N^2-(5-methylpyrazol-3-yl)-N^4-(piperidin-4-yl)-2,4-diaminopyrimidine], the IC50 at Chk1 protein kinase was greater than 10 µM.
With `N#Cc1ccc(Nc2ncc(C(F)(F)F)c(NCC3CCNCC3)n2)cn1` [Compound 34, 5-trifluoromethyl-N^2-(2-cyanopyridin-5-yl)-N^4-(piperidin-4-methyl)-2,4-diaminopyrimidine], at Chk1 protein kinase, the IC50 was less than 1 µM.
Same read-out and setting: with `Cn1cc(-c2cnc(Nc3ccc(C#N)cn3)nc2NC2CCNCC2)cn1` [Compound 26, 5-(1-methyl-1H-pyrazol-4-yl)-N^2-(3-cyanopyridin-6-yl)-N^4-(piperidin-4-yl)-2,4-diaminopyrimidine] the figure was greater than 10 µM.
With `Cc1cc(Nc2ncc(-c3ccco3)c(NC3CCNCC3)n2)n[nH]1` [Compound 5, 5-(furan-2-yl)-N^2-(5-methylpyrazol-3-yl)-N^4-(piperidin-4-yl)-2,4-diaminopyrimidine], the IC50 at Chk1 protein kinase is greater than 10 µM.
